Assay results from PubChem BioAssay AID624167 (Sanford-Burnham Center for Chemical Genomics, 2012).
Calls of active or inactive are those of the source.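 Rule for the calls: active = mean IC50 for reducing PEG3 promoter reporter signal at or below a set limit, with IC50 above the limit in both counter screens; inactive = the rest, including counter screen hits.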

How the values were obtained:
PEG-3 [1] = target: PEG-3 (UniProt Q6IN02); test: inhibition of PEG-3 promoter-driven reporter – cell-based, HeLa, luciferase, CREF/GAPDH counter-screen panel, dose response (AID 624167); settings: HeLa PEG-Prom luciferase reporter, overnight, CREF/GAPDH counter-screens, mean of runs
Chain of PEG-3 (UniProt Q6IN02) (Q6IN02 whole entry, looked up): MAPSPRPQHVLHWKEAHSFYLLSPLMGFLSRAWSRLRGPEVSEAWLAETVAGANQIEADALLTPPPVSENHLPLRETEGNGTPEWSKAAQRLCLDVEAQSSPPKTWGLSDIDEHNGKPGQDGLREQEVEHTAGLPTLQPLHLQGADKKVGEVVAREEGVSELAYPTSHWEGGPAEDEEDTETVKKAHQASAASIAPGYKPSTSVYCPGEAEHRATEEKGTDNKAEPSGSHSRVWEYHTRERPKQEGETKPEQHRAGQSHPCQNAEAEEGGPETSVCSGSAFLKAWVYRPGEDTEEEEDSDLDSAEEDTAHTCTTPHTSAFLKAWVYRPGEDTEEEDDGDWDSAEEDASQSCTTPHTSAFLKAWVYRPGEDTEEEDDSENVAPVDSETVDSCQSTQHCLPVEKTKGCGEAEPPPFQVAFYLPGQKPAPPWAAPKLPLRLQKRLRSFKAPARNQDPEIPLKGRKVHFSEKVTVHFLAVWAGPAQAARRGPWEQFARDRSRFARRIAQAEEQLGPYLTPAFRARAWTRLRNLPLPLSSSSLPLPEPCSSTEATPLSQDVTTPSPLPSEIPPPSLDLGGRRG

PEG-3 [2] = test: as above; settings: HeLa PEG-Prom luciferase reporter, overnight, CREF/GAPDH counter-screens
[3] = run 1, dose range 1, individual replicate IC50 per panel
[4] = run 2, dose range 1, individual replicate IC50 per panel

| IC50 (PEG-3 [1]) | Structure (SMILES) | IC50 (PEG-3 [2]; [3]) [µM] | IC50 (PEG-3 [2]; [4]) [µM] |
| --- | --- | --- | --- |
| inactive | Cc1nc2c(OCc3ccc(OC(F)F)cc3)cccn2c1N(C)C(=O)CCC1CCCC1 | 28.9 | 23.5 |
| > 100 µM (inactive) | COc1ccc(S(=O)(=O)N2c3ccccc3OCC2c2ccccc2)cc1 (stereo unspecified) | > 100 | > 100 |
| 19.9 µM | COc1ccc(C2c3ccc4ccccc4c3Oc3ncn(CCCO)c(=N)c32)cc1 (stereo unspecified) | 22.8 | 17 |
| 13.6 µM | CCCCNc1c(-c2cccc(Sc3ccc(OC)cc3)c2)nc2ccccn12 | 16.7 | 10.6 |
| 16.5 µM | CNC(=O)c1ccsc1NC(=O)c1ccc(S(=O)(=O)N2CCc3ccccc32)cc1 | 19.2 | 13.9 |
| inactive | COc1ccc(C[C@H]2CN3C(=NC[C@@H]3Cc3ccc(O)cc3)N2C[C@H](C)NC(=O)c2ccc(C)c(Br)c2)cc1 | 22.7 | 20.8 |
| 15.7 µM | COc1ccc(-c2nsc3c(N4CCCCC4C)ncnc23)cc1 (stereo unspecified) | 17.5 | 14 |
| 17.8 µM | CCN(Cc1ccccc1)S(=O)(=O)c1ccc(C(=O)N(CCCN(C)C)c2nc3cc4c(cc3s2)OCO4)cc1 | 19.6 | 16 |
| 0.52 µM | COc1cc(C=NO)nc(-c2ccccn2)c1 | 0.84 | < 0.2 |
| 17.1 µM | COc1cccc(/C=C2/Sc3ccc(C(=O)NCCCN4CCCC4)cc3NC2=O)c1 | 21.4 | 12.8 |
| 13.8 µM | CC(=O)c1c(NCCc2ccccc2)nc(=S)n(-c2ccccc2)c1C | 17.2 | 10.3 |
| 19.8 µM | Cc1cc(C)nc(NC(=O)c2c(F)c(F)c(F)c(C(=O)Nc3cc(C)cc(C)n3)c2F)c1 | 20.1 | 19.5 |
| inactive | Cc1ccc(NS(=O)(=O)c2cc3c4c(cccc4c2)C(=O)NC3=O)cc1C | 5.99 | > 100 |
| 19.3 µM | Oc1[nH]c2ccc(Br)cc2c1N=NC(=S)Nc1ccc(F)cc1 | 10.5 | 28.1 |
| 15.3 µM | CC(C)c1ccc(/C=N/Nc2ccc(C(=O)O)cc2)cc1 | 11.1 | 19.4 |
| 16.9 µM | O=C(Nc1cccc(-c2cccc(Cl)c2)c1)C1CCN(C2CCC2)CC1 | 18.9 | 14.9 |
| inactive | COc1cccc(CN(C)C(=O)C(CCSC)NS(=O)(=O)c2ccc3c(c2)OCCO3)c1OC (stereo unspecified) | 61 | 8.89 |
| inactive | NC1=NC[C@H](Cc2ccccc2)N1CCc1cc(C(F)(F)F)cc(C(F)(F)F)c1 | 46.5 | 17.1 |
| 11.1 µM | CN(C)CC1CCC/C(=C/c2ccc(Cl)cc2)C1=O (stereo unspecified) | 14.5 | 7.74 |
| inactive | COc1cc2ccccc2cc1C(=O)N(CCN(C)C)c1nc2c(OC)ccc(OC)c2s1 | 30.7 | 21.2 |
| 12.3 µM | Oc1c(Cl)cc(Cl)c2cccnc12 | 17.9 | 6.75 |
| 14.7 µM | COc1ccc(C2c3ccc4ccccc4c3Oc3ncn(CCO)c(=N)c32)cc1OC (stereo unspecified) | 15.6 | 13.7 |
| inactive | COc1ccc2sc3cccc(NCCN(C)C)c3c(=O)c2c1 | 21.6 | > 100 |
| inactive | CNCC[C@@H](Oc1ccc(C(F)(F)F)cc1)c1ccccc1 | 27 | 53.2 |
| inactive | CCN(c1ccccc1)S(=O)(=O)c1ccc(C(=O)N(CCCN(C)C)c2nc3cc4c(cc3s2)OCO4)cc1 | 23.6 | 19.7 |
| 17.8 µM | COc1cccc(-c2nnc3n2N=C(C(C)(C)C)CS3)c1 | 14.1 | 21.5 |

| Structure (SMILES) | IC50 (PEG-3 [1]) | IC50 (PEG-3 [2]; [3]) [µM] | IC50 (PEG-3 [2]; [4]) [µM] |
| --- | --- | --- | --- |
| C[C@@H]1O[C@@H](O[C@@H]2C=C3CCC4C(CC[C@]5(C)[C@@H](c6ccc(=O)oc6)CC[C@]45O)[C@@]3(C)CC2)[C@H](O)[C@H](O)[C@H]1O (stereo partly specified) | 0.45 µM | 0.709 | < 0.2 |
